In ChEMBL document CHEMBL6092192 (J Med Chem, 2024):
Activity calls are given as the source filed them. No cut-off for these calls is given here.

Columns and labels:
SW620/AD300 [1] = test: Reversal of paclitaxel resistance in human SW620/AD300 cells assessed as reversal fold by measuring ratio of paclitaxel IC50 to paclitaxel IC50 in presence of test compound incubated for 72 hrs by MTT assay; format: functional
SW620/AD300 [2] = test: Cytotoxicity against multidrug resistant human SW620/AD300 cells assessed as survival rate at 4 uM measured after 72 hrs by MTT assay relative to control; format: functional; conditions: read-out: Survival
SW-620 [3] = test: Reversal of paclitaxel resistance in human SW620 cells assessed as reversal fold by measuring ratio of paclitaxel IC50 to paclitaxel IC50 in presence of test compound at 4 uM incubated for 72 hrs by MTT assay; format: functional
SW-620 [4] = test: Cytotoxicity against human SW620 cells assessed as survival rate at 2 uM measured after 72 hrs by MTT assay relative to control; format: functional; conditions: read-out: Survival
SW-620 [5] = test: Cytotoxicity against human SW620 cells assessed as survival rate at 4 uM measured after 72 hrs by MTT assay relative to control; format: functional; conditions: read-out: Survival
SW620/AD300 [6] = test: Reversal of paclitaxel resistance in human SW620/AD300 cells assessed as reversal fold by measuring ratio of paclitaxel IC50 to paclitaxel IC50 in presence of test compound at 4 uM incubated for 72 hrs by MTT assay; format: functional
KB-C2 = test: Reversal of paclitaxel resistance in human KB-C2 cells assessed as reversal fold by measuring ratio of paclitaxel IC50 to paclitaxel IC50 in presence of test compound at 2 uM incubated for 72 hrs by MTT assay; format: functional
KB 3-1 [7] = test: Reversal of paclitaxel resistance in human KB 3-1 cells assessed as reversal fold by measuring ratio of paclitaxel IC50 to paclitaxel IC50 in presence of test compound at 2 uM incubated for 72 hrs by MTT assay; format: functional
KB 3-1 [8] = test: Cytotoxicity against human KB 3-1 cells assessed as survival rate at 2 uM measured after 72 hrs by MTT assay relative to control; format: functional; conditions: read-out: Survival
[9] = Cmax in 12 hrs fasted Sprague-Dawley rat at 1 mg/kg, iv measured upto 720 mins by HPLC-MS/MS analysis; format: ADME, organism-based; conditions: in vivo
[10] = AUC (0 to infinity) in 12 hrs fasted Sprague-Dawley rat at 1 mg/kg, iv measured upto 720 mins by HPLC-MS/MS analysis; format: ADME, organism-based; conditions: in vivo
[11] = Clearance in 12 hrs fasted Sprague-Dawley rat at 1 mg/kg, iv measured upto 720 mins by HPLC-MS/MS analysis; format: ADME, organism-based; conditions: in vivo
[12] = Half life in 12 hrs fasted Sprague-Dawley rat at 10 mg/kg, po measured upto 720 mins by HPLC-MS/MS analysis; format: ADME, organism-based; conditions: in vivo
[13] = Tmax in 12 hrs fasted Sprague-Dawley rat at 10 mg/kg, po measured upto 720 mins by HPLC-MS/MS analysis; format: ADME, organism-based; conditions: in vivo
SW620/AD300 [14] = test: Antitumor activity against human SW620/AD300 cells xenografted in male BALB/c nude mouse model assessed as reduction in tumor volume at 100 mg/kg/day, IG measured after 21 days in presence of paclitaxel; format: functional, organism-based; conditions: time 21.0 day
SW620/AD300 [15] = test: Antitumor activity against human SW620/AD300 cells xenografted in male BALB/c nude mouse model assessed as reduction in tumor weight at 100 mg/kg/day, IG measured after 21 days in presence of paclitaxel; format: functional, organism-based; conditions: time 21.0 day
SW620/AD300 [16] = test: Antitumor activity against human SW620/AD300 cells xenografted in male BALB/c nude mouse model assessed as reduction in tumor volume at 100 mg/kg/day, IG measured after 21 days; format: functional, organism-based; conditions: time 21.0 day
[17] = Toxicity in BALB/c nude mouse assessed as mortality at 100 mg/kg/day, IG measured after 21 days in presence of paclitaxel; format: organism-based; conditions: in vivo, po, 504 h, time 21 day
CD8-positive T cell = test: Activation of immune response in human CD8-positive T cell assessed as increase in TNF-alpha level at 4 uM by ELISA method; format: functional, cell-based
[18] = target: T1, ATP-dependent translocase ABCB1 (Homo sapiens, UniProt P08183); test: Activation of ABCB1 ATPase activity (unknown origin) infected in insect cells at 18.5 uM incubated for 20 mins in presence of Mg-ATP by spectrophotometric analysis; format: cell-based; conditions: insect cell
T1 sequence (P08183 whole entry): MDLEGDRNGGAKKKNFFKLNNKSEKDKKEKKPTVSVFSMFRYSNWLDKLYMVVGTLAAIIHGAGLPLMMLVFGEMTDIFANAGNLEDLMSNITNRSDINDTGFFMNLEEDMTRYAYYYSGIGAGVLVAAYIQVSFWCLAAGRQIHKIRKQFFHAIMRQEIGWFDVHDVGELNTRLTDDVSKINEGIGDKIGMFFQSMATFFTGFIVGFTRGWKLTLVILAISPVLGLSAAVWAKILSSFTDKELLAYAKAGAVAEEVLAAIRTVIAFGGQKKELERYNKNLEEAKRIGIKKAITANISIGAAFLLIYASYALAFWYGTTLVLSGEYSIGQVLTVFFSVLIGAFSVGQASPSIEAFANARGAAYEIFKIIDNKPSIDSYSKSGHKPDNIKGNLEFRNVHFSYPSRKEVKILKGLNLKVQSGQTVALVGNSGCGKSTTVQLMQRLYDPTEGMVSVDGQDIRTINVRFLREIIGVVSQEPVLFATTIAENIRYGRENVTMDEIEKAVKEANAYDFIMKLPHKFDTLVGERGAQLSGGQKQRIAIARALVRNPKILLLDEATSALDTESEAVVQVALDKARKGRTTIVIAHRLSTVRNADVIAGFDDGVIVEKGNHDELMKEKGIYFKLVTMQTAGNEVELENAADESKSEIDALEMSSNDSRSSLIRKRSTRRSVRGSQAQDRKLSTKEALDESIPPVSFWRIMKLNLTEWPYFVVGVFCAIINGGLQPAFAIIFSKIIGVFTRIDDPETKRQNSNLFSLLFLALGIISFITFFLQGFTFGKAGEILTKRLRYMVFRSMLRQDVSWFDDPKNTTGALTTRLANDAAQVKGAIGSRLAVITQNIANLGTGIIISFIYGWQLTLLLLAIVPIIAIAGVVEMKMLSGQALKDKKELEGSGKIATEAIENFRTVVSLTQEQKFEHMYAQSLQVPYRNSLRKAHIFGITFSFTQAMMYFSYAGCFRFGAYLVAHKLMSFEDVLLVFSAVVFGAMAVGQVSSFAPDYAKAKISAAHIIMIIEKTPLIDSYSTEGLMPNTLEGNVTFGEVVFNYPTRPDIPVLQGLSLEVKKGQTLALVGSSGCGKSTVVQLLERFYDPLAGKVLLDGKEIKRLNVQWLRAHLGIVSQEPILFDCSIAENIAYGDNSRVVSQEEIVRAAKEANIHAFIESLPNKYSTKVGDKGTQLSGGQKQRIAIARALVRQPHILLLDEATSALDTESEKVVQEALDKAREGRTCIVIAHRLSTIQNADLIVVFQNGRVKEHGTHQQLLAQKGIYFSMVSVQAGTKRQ

[19] = Toxicity in BALB/c nude mouse xenografted with […] CT26/TAXOL cells assessed as mortality at 100 mg/kg/day, IG measured upto 14 days in presence of paclitaxel/anti-PD-1; format: organism-based; conditions: in vivo, po, 336 h, time < 14 day
[20] = Toxicity in BALB/c nude mouse xenografted with […] CT26/TAXOL cells assessed as change in body weight at 100 mg/kg/day, IG measured upto 14 days; format: organism-based; conditions: in vivo, po, 336 h, time < 14 day
[21] = Toxicity in BALB/c nude mouse xenografted with […] CT26/TAXOL cells assessed as change in body weight at 100 mg/kg/day, IG measured upto 14 days in presence of paclitaxel/anti-PD-1; format: organism-based; conditions: in vivo, po, 336 h, time < 14 day
CT26/TAXOL = test: Antitumor T-cell immune response in […] cells xenografted in BALB/c nude mouse model assessed as increase in CD8+ T-cell infiltration at 100 mg/kg/day, IG in presence of anti-PD-1/paclitaxel measured after 14 days by immunofluorescence staining based analysis; format: functional, organism-based; conditions: time 14.0 day
[22] = Toxicity in BALB/c nude mouse xenografted with […] CT26/TAXOL cells assessed as effect on kidney at 100 mg/kg/day, IG measured after 14 days by H and E staining based analysis; format: organism-based; conditions: in vivo, po, 336 h, time 14 day
[23] = Toxicity in BALB/c nude mouse xenografted with […] CT26/TAXOL cells assessed as effect on heart at 100 mg/kg/day, IG in presence of paclitaxel/anti-PD-1 measured after 14 days by H and E staining based analysis; format: organism-based; conditions: in vivo, po, 336 h, time 14 day
[24] = Toxicity in BALB/c nude mouse xenografted with […] CT26/TAXOL cells assessed as effect on liver at 100 mg/kg/day, IG in presence of paclitaxel/anti-PD-1 measured after 14 days by H and E staining based analysis; format: organism-based; conditions: in vivo, po, 336 h, time 14 day
[25] = Toxicity in BALB/c nude mouse xenografted with […] CT26/TAXOL cells assessed as effect on spleen at 100 mg/kg/day, IG in presence of paclitaxel/anti-PD-1 measured after 14 days by H and E staining based analysis; format: organism-based; conditions: in vivo, po, 336 h, time 14 day
[26] = Toxicity in BALB/c nude mouse xenografted with […] CT26/TAXOL cells assessed as effect on lung at 100 mg/kg/day, IG in presence of paclitaxel/anti-PD-1 measured after 14 days by H and E staining based analysis; format: organism-based; conditions: in vivo, po, 336 h, time 14 day
[27] = target: T1, ATP-dependent translocase ABCB1; test: Inhibition of ABCB1 in human SW620/AD300 cells assessed as increase in [3H]-PTX accumulation at 2 to 4 uM incubated for 4 hrs by liquid scintillation analysis; format: cell-based; conditions: sw620/ad300, 4 h, dose 2-4 µM
[28] = target: T1, ATP-dependent translocase ABCB1; test: Inhibition of ABCB1 in human SW620/AD300 cells assessed as decrease in [3H]-PTX efflux at 4 uM measured after 120 mins (Rvb <95%); format: cell-based; conditions: 2 h
Cytochrome P450 3A4 = Cytochrome P450 3A4 (Homo sapiens, UniProt P08684); test: Activation of recombinant CYP3A4 in human liver microsomes at 4 uM measured after 30 mins in presence of NADPH generating system by fluorescence based analysis; format: ADME, Microsome; conditions: 0.5 h
Sequence of Cytochrome P450 3A4 (P08684 whole entry): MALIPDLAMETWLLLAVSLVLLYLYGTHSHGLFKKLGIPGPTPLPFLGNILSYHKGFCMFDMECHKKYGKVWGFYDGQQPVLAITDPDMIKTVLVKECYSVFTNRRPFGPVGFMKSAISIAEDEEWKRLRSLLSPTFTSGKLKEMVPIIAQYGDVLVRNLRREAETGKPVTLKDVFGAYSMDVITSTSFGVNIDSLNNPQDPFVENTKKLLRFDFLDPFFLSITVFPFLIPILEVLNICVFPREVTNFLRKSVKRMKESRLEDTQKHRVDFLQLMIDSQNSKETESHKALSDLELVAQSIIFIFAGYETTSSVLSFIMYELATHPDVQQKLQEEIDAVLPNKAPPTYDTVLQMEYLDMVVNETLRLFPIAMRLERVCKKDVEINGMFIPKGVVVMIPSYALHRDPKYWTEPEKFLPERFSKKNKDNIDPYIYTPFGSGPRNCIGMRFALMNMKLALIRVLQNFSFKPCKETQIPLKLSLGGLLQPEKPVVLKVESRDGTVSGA

Compound: O=c1c2c([nH]c3nc(SCc4nc5ccccc5s4)nn13)CCC2
- Ratio IC50 (SW620/AD300 [1]): 864
- viability at 4 µM (SW620/AD300 [2]): 95.6%
- Ratio IC50 (SW-620 [3]): 1.06
- viability at 2 µM (SW-620 [4]): 95.9%
- viability at 4 µM (SW-620 [5]): 92.4%
- Ratio IC50 (SW620/AD300 [6]): 730.33
- Ratio IC50 (KB-C2): 106.85
- Ratio IC50 (KB 3-1 [7]): 1.05
- viability at 2 µM (KB 3-1 [8]): 99.6%
- Cmax [9]: 380 ng/mL
- AUC(0-inf) [10]: 915 ng·h/mL
- clearance [11]: 18.3 mL/min/kg
- half-life [12]: 244 min
- Tmax [13]: 6 h
- Activity (SW620/AD300 [14]): Active
- Activity (SW620/AD300 [15]): Active
- Activity (SW620/AD300 [16]): Active; Compound Showed Negligible Effect
- Activity [17]: Non-toxic
- Activity (CD8-positive T cell): Active
- Activity [18]: Active
- Activity [19]: Non-toxic
- Activity [20]: Non-toxic
- Activity [21]: Non-toxic
- Activity (CT26/TAXOL): Active
- Activity [22]: Non-toxic
- Activity [23]: Non-toxic
- Activity [24]: Non-toxic
- Activity [25]: Non-toxic
- Activity [26]: Non-toxic
- inhibition (INH) [27]: Active
- inhibition at 4 µM [28]: 71%
- Activity (Cytochrome P450 3A4): Active
